In patent US5753660A, “Substituted sulfonylalkanoylamino hydroxyethylamino sulfonamide retroviral protease inhibitors” (G. D. Searle & Co., priority 1996, dated 1998):

Experiments:
[1] = target: T1, HIV protease (Human immunodeficiency virus type 1 group M subtype B, UniProt P04585); test: HIV protease enzyme assay; type: biochemical; details: HIV protease 12.3 nanomolar; substrate 80 μM; pH 6.4; ambient temperature
T1 construct: HIV protease is diluted in the assay buffer to a final enzyme concentration of 12.3 nanomolar, based on a molecular weight of 10,780
Source text: The compounds of the present invention are effective HIV protease inhibitors. Utilizing an enzyme assay as described below, the compounds set forth in the examples herein disclosed inhibited the HIV enzyme. The preferred compounds of the present invention and their calculated IC50 (inhibiting concentration 50%, i.e., the concentration at which the inhibitor compound reduces enzyme activity by 50%) values are shown in Table 14. The enzyme method is described below. The substrate is 2-Ile-Nle-Phe(p-NO2)-Gln-ArgNH2. The positive control is MVT-101 (Miller, M. et al, Science, 246, 1149 (1989)] The assay conditions are as follows:
Assay buffer: 20 mM sodium phosphate, pH 6.4
The above described substrate is dissolved in DMSO, then diluted 10 fold in assay buffer. Final substrate concentration in the assay is 80 μM. HIV protease is diluted in the assay buffer to a final enzyme concentration of 12.3 nanomolar, based on a molecular weight of 10,780.
The final concentration of DMSO is 14% and the final concentration of glycerol is 18%. The test compound is dissolved in DMSO and diluted in DMSO to 10×the test concentration; 10 μl of the enzyme preparation is added, the materials mixed and then the mixture is incubated at ambient temperature for 15 minutes. The enzyme reaction is initiated by the addition of 40 μl of substrate. The increase in fluorescence is monitored at 4 time points (0, 8, 16 and 24 minutes) at ambient temperature. Each assay is carried out in duplicate wells.

[2] = test system: HIV-1; test: HIV inhibition assay in acutely infected CEM cells (tetrazolium/MTT based); type: cell-based; details: Human immunodeficiency virus 1, CCRF-CEM, 168 h, HIV-1 1000 TCID50, MTT, 7 days
Procedure: The effectiveness of various compounds were determined in the above-described enzyme assay and in a CEM cell assay.
The HIV inhibition assay method of acutely infected cells is an automated tetrazolium based calorimetric assay essentially that reported by Pauwles et al, J. Virol. Methods, 20, 309-321 (1988). Assays were performed in 96-well tissue culture plates. CEM cells, a CD4+ cell line, were grown in RPMI-1640 medium (Gibco) supplemented with a 10% fetal calf serum and were then treated with polybrene (2 μug/ml). An 80 μl volume of medium containing 1×10^4 cells was dispensed into each well of the tissue culture plate. To each well was added a 100 μl volume of test compound dissolved in tissue culture medium (or medium without test compound as a control) to achieve the desired final concentration and the cells were incubated at 37° C. for 1 hour. A frozen culture of HIV-1 was diluted in culture medium to a concentration of 5×10^4 TCID50 per ml (TCID50 =the dose of virus that infects 50% of cells in tissue culture), and a 20 μl volume of the virus sample (containing 1000 TCID50 of virus) was added to wells containing test compound and to wells containing only medium (infected control cells). Several wells received culture medium without virus (uninfected control cells). Likewise, the intrinsic toxicity of the test compound was determined by adding medium without virus to several wells containing test compound. In summary, the tissue culture plates contained the following experiments:
In experiments 2 and 4 the final concentrations of test compounds were 1, 10, 100 and 500 μg/ml. Either azidothymidine (AZT) or dideoxyinosine (ddI) was included as a positive drug control. […] DMSO was added to all control wells at an appropriate concentration.
Following the addition of virus, cells were incubated at 37° C. in a humidified, 5% CO2 atmosphere for 7 days. Test compounds could be added on days 0, 2 and 5 if desired. On day 7,post-infection, the cells in each well were resuspended and a 100 μl sample of each cell suspension was removed for assay. A 20 μL volume of a 5 mg/ml solution of 3-(4,5-dimethylthiazol-2-yl)-2,5-diphenyltetrazolium bromide (MTT) was added to each 100 μL cell suspension, and the cells were incubated for 4 hours at […] in a 5% CO2 environment. […] To each sample was added 100 μl of 10% sodium dodecylsulfate in 0.01N HC1 to lyse the cells, and samples were incubated overnight. The absorbance at 590 nm was determined for each sample using a Molecular Devices microplate reader. Absorbance values for each set of wells is compared to assess viral control infection, uninfected control cell response as well as test compound by cytotoxicity and antiviral efficacy.

IC50 [1] [nM]	SMILES	EC50 [2] [nM]
10	CC(C)CN(C[C@@H](O)[C@H](Cc1ccccc1)NC(=O)[C@H](C)CS(=O)(=O)CC(=O)NCC[N+]1([O-])CCCC1)S(=O)(=O)c1ccc2c(c1)OCO2 [Example 2]	–
16	CC(C)CN(C[C@@H](O)[C@H](Cc1ccccc1)NC(=O)[C@H](C)CSCCC(=O)N1CCN(C(=O)OC(C)(C)C)CC1)S(=O)(=O)c1ccc2c(c1)OCO2 [Example 26]	–
12	CC(C)CN(C[C@@H](O)[C@H](Cc1ccccc1)NC(=O)[C@H](C)CSCC(=O)N1CCN(C(=O)OC(C)(C)C)CC1)S(=O)(=O)c1ccc2c(c1)OCO2 [Example 23]	–
22	CCOC(=O)CCCSC[C@@H](C)C(=O)N[C@@H](Cc1ccccc1)[C@H](O)CN(CC(C)C)S(=O)(=O)c1ccc2c(c1)OCO2 [Example 11]	–
4	CC(C)CN(C[C@@H](O)[C@H](Cc1ccccc1)NC(=O)[C@H](C)CS(=O)(=O)CC(CO)CO)S(=O)(=O)c1ccc2c(c1)OCO2 [Example 20]	–
63	CC(C)CN(C[C@@H](O)[C@H](Cc1ccccc1)NC(=O)[C@H](C)CSCC(=O)N1CCOCC1)S(=O)(=O)c1ccc2c(c1)OCO2 [Example 22]	–
7	CC(C)CN(C[C@@H](O)[C@H](Cc1ccccc1)NC(=O)[C@H](C)CS(=O)(=O)CC(=O)N1CCN(C(=O)OC(C)(C)C)CC1)S(=O)(=O)c1ccc2c(c1)OCO2 [Example 7]	–
27	CC(C)CN(C[C@@H](O)[C@H](Cc1ccccc1)NC(=O)[C@H](C)CS(=O)(=O)CC(=O)N1CCNCC1)S(=O)(=O)c1ccc2c(c1)OCO2 [Example 8]	–
10	CC(C)CN(C[C@@H](O)[C@H](Cc1ccccc1)NC(=O)[C@H](C)CS(=O)(=O)CC(=O)NCC[N+]1([O-])CCOCC1)S(=O)(=O)c1ccc2c(c1)OCO2 [Example 5]	–
75	CC(C)CN(C[C@@H](O)[C@H](Cc1ccccc1)NC(=O)[C@H](C)CSCC(=O)NCCN1CCCC1)S(=O)(=O)c1ccc2c(c1)OCO2 [Example 27]	–
25	CC(C)CN(C[C@@H](O)[C@H](Cc1ccccc1)NC(=O)[C@H](C)CSCC(=O)N1CCSCC1)S(=O)(=O)c1ccc2c(c1)OCO2 [Example 24]	–
9	COC1O[C@H](CS(=O)(=O)C[C@@H](C)C(=O)N[C@@H](Cc2ccccc2)[C@H](O)CN(CC(C)C)S(=O)(=O)c2ccc3c(c2)OCO3)[C@@H](O)[C@H]1O (some centres unmarked) [Example 21]	–
6	CC(C)CN(C[C@@H](O)[C@H](Cc1ccccc1)NC(=O)[C@H](C)CS(=O)(=O)C[C@@H]1CCCN1)S(=O)(=O)c1ccc2c(c1)OCO2 [Example 18]	–

Continued, compound first:

SMILES	IC50 [1] [nM]	EC50 [2] [nM]
CC(C)CN(C[C@@H](O)[C@H](Cc1ccccc1)NC(=O)[C@H](C)CS(=O)(=O)c1ccccn1)S(=O)(=O)c1ccc2c(c1)OCO2 [Example 19]	11	174
CC(C)CN(C[C@@H](O)[C@H](Cc1ccccc1)NC(=O)[C@H](C)CS(=O)(=O)Cc1nc2ccccc2[nH]1)S(=O)(=O)c1ccc2c(c1)OCO2 [Example 15]	3	47
CC(C)CN(C[C@@H](O)[C@H](Cc1ccccc1)NC(=O)[C@H](C)CS(=O)(=O)Cc1c[nH]cn1)S(=O)(=O)c1ccc2c(c1)OCO2 [Example 12]	7	187
CC(C)CN(C[C@@H](O)[C@H](Cc1ccccc1)NC(=O)[C@H](C)CS(=O)(=O)Cc1cc[nH]n1)S(=O)(=O)c1ccc2c(c1)OCO2 [Example 13]	5	71
CC(C)CN(C[C@@H](O)[C@H](Cc1ccccc1)NC(=O)[C@H](C)CS(=O)(=O)CCC(=O)N1CCOCC1)S(=O)(=O)c1ccc2c(c1)OCO2 [Example 6]	24	123
CC(C)CN(C[C@@H](O)[C@H](Cc1ccccc1)NC(=O)[C@H](C)CS(=O)(=O)CCC(=O)N1CCNCC1)S(=O)(=O)c1ccc2c(c1)OCO2 [Example 4]	4	–
CC(C)CN(C[C@@H](O)[C@H](Cc1ccccc1)NC(=O)[C@H](C)CS(=O)(=O)Cc1cn[nH]c1)S(=O)(=O)c1ccc2c(c1)OCO2 [Example 14]	4	81
CC(C)CN(C[C@@H](O)[C@H](Cc1ccccc1)NC(=O)[C@H](C)CS(=O)(=O)CC(=O)c1ccccc1)S(=O)(=O)c1ccc2c(c1)OCO2 [Example 9]	4	39
CC(C)CN(C[C@@H](O)[C@H](Cc1ccccc1)NC(=O)[C@H](C)CS(=O)(=O)C[C@H]1CCCN1C(=O)OCc1ccccc1)S(=O)(=O)c1ccc2c(c1)OCO2 [Example 25]	6	43
CC(C)CN(C[C@@H](O)[C@H](Cc1ccccc1)NC(=O)[C@H](C)CS(=O)(=O)CCC(=O)N1CCN(C(=O)OC(C)(C)C)CC1)S(=O)(=O)c1ccc2c(c1)OCO2 [Example 3]	4	–
CC(C)CN(C[C@@H](O)[C@H](Cc1ccccc1)NC(=O)[C@H](C)CS(=O)(=O)Cc1cncs1)S(=O)(=O)c1ccc2c(c1)OCO2 [Example 16]	4	21
CC(C)CN(C[C@@H](O)[C@H](Cc1ccccc1)NC(=O)[C@H](C)CS(=O)(=O)C[C@H]1CCCN1)S(=O)(=O)c1ccc2c(c1)OCO2 [Example 17]	4	160
CC(C)CN(C[C@@H](O)[C@H](Cc1ccccc1)NC(=O)[C@H](C)CS(=O)(=O)CCc1ccccn1)S(=O)(=O)c1ccc2c(c1)OCO2	3	6
CC(C)CN(C[C@@H](O)[C@H](Cc1ccccc1)NC(=O)[C@H](C)CS(=O)(=O)CC(=O)N1CCS(=O)(=O)CC1)S(=O)(=O)c1ccc2c(c1)OCO2 [Example 10]	16	–
